The values that follow come from patent US7323541B2, “Polypeptide DNA thereof and use of the same” (Takeda Pharmaceutical Company Limited, priority 2001, dated 2008).

Where no end group is shown, it is not given here.

In assay [1] the target is T1, membrane fraction of TGR23-2 expressing CHO cells (Homo sapiens, UniProt Q6W5P4, N107I/Q344R).
T1 construct: the clones having the cDNA of TGR23-2, which is contained in pTB2174, were selected; expressed in transfected cells; host or cells: hamster CHO/dhfr- cells, vector pAKKO-111H (pAKKO-TGR23-2)
T1 sequence (Q6W5P4 1-371 N107I/Q344R): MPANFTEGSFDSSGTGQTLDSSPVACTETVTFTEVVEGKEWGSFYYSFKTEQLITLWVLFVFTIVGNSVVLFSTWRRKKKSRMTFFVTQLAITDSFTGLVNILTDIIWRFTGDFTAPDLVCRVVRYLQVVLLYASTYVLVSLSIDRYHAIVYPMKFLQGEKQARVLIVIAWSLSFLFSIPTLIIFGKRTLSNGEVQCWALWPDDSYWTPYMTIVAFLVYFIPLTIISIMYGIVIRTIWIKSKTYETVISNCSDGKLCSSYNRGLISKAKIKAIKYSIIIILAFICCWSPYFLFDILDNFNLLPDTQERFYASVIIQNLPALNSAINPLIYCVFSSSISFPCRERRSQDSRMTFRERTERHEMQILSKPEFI
Nature of the assay: GTPγS binding activity in membrane fraction. Format: biochemical. The protocol:
Enhancing activity of binding of [^35S]-Guanosine 5′-(γ-thio) triphosphate in the membrane fraction of TGR23-2 expressing CHO cells was measured by the following method. Firstly, it is described about preparation of membrane fraction. Twenty (20) ml of homogenation buffer (10 mM HEPES (pH7.3), 5 mM EDTA, 0.52 mM PMSF, 10 μg/ml pepstatin, 8 μg/ml E64, 20 μg/ml leupeptin) was added to 8×10^7 of TGR23-2 expressing CHO cells, and the cells were disrupted using Polytron (12,000 rpm, 30 seconds×3 times). The cell-disrupted fluids were centrifuged (1,000 g for 15 minutes) to get supernatant. Subsequently the supernatant was ultracentrifuged (Beckman type 30 rotor, 30,000 rpm, one hour), and the precipitate obtained was collected as a membrane fraction of TGR23-2 expressing CHO cells. The GTPγS binding activity was assayed as follows. The membrane fraction of TGR23-2 expressing CHO cells was diluted with membrane dilution buffer (50 mM Tris-HCl buffer (pH7.4), 5 mM MgCl2, 150 mM NaCl, 0.03% NaN3, 0.1% BSA, 1 μM GDP) to get cell membrane fraction solution for assay at the protein concentration of […]. Two (2) μl of 50 nM [^35S]-guanosine 5′-(γ-thio) triphosphate (NEN) and sample were added to 200 μl of cell membrane fraction solution for assay, and the mixture was incubated at 25° C. for one (1) hour. The mixture was filtered, and the filter was washed twice with 1.5 ml of washing buffer (50 mM Tris-HCl buffer (pH7.4), 5 mM MgCl2, 1 mM EDTA, 0.03% NaN3, 0.1% BSA). Then the radioactivity on the filter was measured by liquid scintillation counter. Human TGR23-2 ligand (1-20) prepared by the method described in Example 17, rat TGR23-2 ligand (1-18) prepared by the method described in Example 19 and mouse TGR23-2 ligand (1-20) prepared by the method described in Example 20 were administered to TGR23-2 expressing CHO cells at a variety of concentrations according to the method described above, and the GTPγS binding activity was determined.
For orientation: GTPγS is a poorly hydrolysed GTP analogue; its binding reports G protein activation.

In assay [2] the target is T2, TGR23-2 expressing CHO cells (Homo sapiens, UniProt Q6W5P4, N107I/Q344R).
T2 construct: the clones having the cDNA of TGR23-2, which is contained in pTB2174, were selected; expressed in transfected cells; host or cells: hamster CHO/dhfr- cells, vector pAKKO-111H (pAKKO-TGR23-2)
T2 sequence (Q6W5P4 1-371 N107I/Q344R): T1 sequence (Q6W5P4 1-371 N107I/Q344R)
Nature of the assay: Enhancing activity of arachidonic acid metabolite release. Format: cell-based. Here is the method: The CHO/TGR23-2 cells prepared in Example 1 and selected in Example 2 were plated on 24-well plate at 5×10^4 cells/well and cultured for 24 hours. After removing the medium, αMEM medium (pH7.4) supplemented with 0.5 μCi/ml [^3H] arachidonic acid, 10% dialyzed FBS, 20 mM HEPES and 0.5% BSA was added to the cells at 500 μl/well. Subsequently, the cells were incubated for 16 hours in the incubator. After the culture medium containing [^3H] arachidonic acid was discarded, 500 μl/well of αMEM medium (pH7.4) supplemented with 20 mM HEPES and 0.5% BSA were added, and the cells were incubated for 4 hours in the incubator. […] Three milliliters of liquid scintilator were added to the supernatant described above to measure the radioactivity. Based on this measured value, a calculation was made using the following formula, and the promoting activity of arachidonic acid metabolite release was represented by % of control. The activity of the sample-adding group was calculated using a control value configured in each plate. % of control=[…]
X: The radioactivity in the sample-adding group
C: The means of the radioactivity in 4 wells of control (no sample) […]

On to “SFRNGVGSGVKKTSFRRA [rat TGR23-2 ligand (1-18), Ser-Phe-Arg-Asn-Gly-Val-Gly-Ser-Gly-Val-Lys-Lys-Thr-Ser-Phe-Arg-Arg-Ala]”, for which, in assay [1], the GTPγS binding activity entry is given as “enhance the GTPγS binding activity”. Also, the “enhancing activity of arachidonic acid metabolite release” value in assay [2] is “enhance the arachidonic acid metabolite release”.

As to “SFRNGVGTGMKKTSFQRAKS [human TGR23-2 ligand (1-20)]”, in assay [1], the GTPγS binding activity entry is “enhance the GTPγS binding activity”. In addition, the “enhancing activity of arachidonic acid metabolite release” value in assay [2] is listed as “enhance the arachidonic acid metabolite release”.
